ChEMBL document CHEMBL3232969, “Structure-based design and synthesis of tricyclic IAP (Inhibitors of Apoptosis Proteins) inhibitors” (Bioorg Med Chem Lett, 2014)
pIC50: −log10 of the molar value. Converted amounts (≈) assume the structure as drawn.

What was measured:
[1] = (§1) Percentage unbound in human plasma
[2] = Lipophilicity, log D of the compound; details: octanol/water
[3] = target: Baculoviral IAP repeat-containing protein 2 (Homo sapiens, UniProt Q13490)
Description: Inhibition of cIAP1 BIR3 domain (unknown origin) by fluorescence polarization assay

[4] = Aqueous solubility of the compound
[5] = Intrinsic clearance in human liver microsomes
[6] = tested on: MDA-MB-231; assay: Growth inhibition of human MDA-MB-231 cells; format: functional
[7] = target: E3 ubiquitin-protein ligase XIAP (Homo sapiens, UniProt P98170); assay: Inhibition of XIAP BIR3 domain (unknown origin) by fluorescence polarization assay
[8] = tested on: Plasma; assay: as §1

Row | fraction unbound ([1]; Fu) | logD ([2]; logD) | solubility [4] [µM] | microsomal CLint ([5]; liver microsomes, CLH) [µL/min/mg] | GI50 ([6]; Homo sapiens, MDA-MB-231) [nM] | pIC50 [7] | SMILES | further results
1 | 0.057 | 2.5 | > 1000 | 32 |  |  | CN[C@@H](C)C(=O)N[C@H](C(=O)N1CC[C@H]2CCN(CCc3ccccc3)C[C@H]21)C1CCCCC1 | pIC50 [3]: 7.57
2 | 0.51 | 1.3 | > 1000 | < 4 | 320 |  | CN[C@@H](C)C(=O)N[C@H]1CCC[C@H]2C[C@H]3CCN(CCc4ccccc4)C[C@H]3N2C1=O | 
3 | 0.18 | 2.1 | > 1000 | 5.2 | 970 | < 5.00 | CN[C@@H](C)C(=O)N[C@H]1CCC[C@H]2C[C@H]3CCN(CCc4ccc(C(F)(F)F)cc4)C[C@H]3N2C1=O | 
4 |  |  |  |  |  |  | CN[C@@H](C)C(=O)N[C@H]1CCC[C@H]2SC(C)(C)C(C(=O)Nc3cc(C)nn3-c3ccccc3)N2C1=O (some centres undefined) | pIC50 [3]: 7.30
5 | 0.17 | 2.2 | > 1000 | 4.7 | 28 |  | CN[C@@H](C)C(=O)N[C@H]1CCC[C@H]2C[C@H]3CCN(CCc4ccc(Br)cc4)C[C@H]3N2C1=O | 
6 | 0.49 | 1.4 |  | < 4 | 96 |  | CN[C@@H](C)C(=O)N[C@H]1CCC[C@H]2C[C@H]3CCN(CCc4ccccc4F)C[C@H]3N2C1=O | 
7 | 0.48 | 1.3 | > 1000 | < 4 | 120 |  | CN[C@@H](C)C(=O)N[C@H]1CCC[C@H]2C[C@H]3CCN(CCc4ccc(F)cc4)C[C@H]3N2C1=O | pIC50 [3]: 7.68
8 | 0.34 | 0.9 | > 1000 | < 4 | 230 |  | CN[C@@H](C)C(=O)N[C@H]1CCC[C@H]2C[C@H]3CCN(CCc4ccccc4OC)C[C@H]3N2C1=O | 
9 | 0.47 | 0.9 | > 1000 | < 4 | 670 |  | CN[C@@H](C)C(=O)N[C@H]1CCC[C@H]2C[C@H]3CCN(CCc4cccc(OC)c4)C[C@H]3N2C1=O | 
10 | 0.47 | 1 | > 1000 | < 4 | 2600 |  | CN[C@@H](C)C(=O)N[C@H]1CCC[C@H]2C[C@H]3CCN(CCc4ccc(OC)cc4)C[C@H]3N2C1=O | 
11 |  | 0.2 | > 1000 |  | 200 |  | CN[C@@H](C)C(=O)N[C@H]1CCC[C@H]2C[C@H]3CCN(CCc4ccc(O)cc4)C[C@H]3N2C1=O | 
12 | 0.48 | 1.3 | > 1000 | 6.8 | 370 |  | CN[C@@H](C)C(=O)N[C@H]1CCC[C@H]2C[C@H]3CCN(CCc4ccccc4C)C[C@H]3N2C1=O | 
13 | 0.47 | 1.3 | > 1000 | 6.9 | 310 |  | CN[C@@H](C)C(=O)N[C@H]1CCC[C@H]2C[C@H]3CCN(CCc4cccc(C)c4)C[C@H]3N2C1=O | 
14 | 0.32 | 1.6 | > 1000 | < 4 | 160 |  | CN[C@@H](C)C(=O)N[C@H]1CCC[C@H]2C[C@H]3CCN(CCc4ccc(C)cc4)C[C@H]3N2C1=O | 
15 | 0.24 | 1.8 | > 1000 | 6.6 | 340 |  | CN[C@@H](C)C(=O)N[C@H]1CCC[C@H]2C[C@H]3CCN(CCc4ccc(Cl)cc4)C[C@H]3N2C1=O | 
16 | 0.065 | 2.3 | > 1000 | 28 | 260 |  | CN[C@@H](C)C(=O)N[C@H]1CCC[C@H]2C[C@H]3CCN(CCc4ccc(Cl)c(Cl)c4)C[C@H]3N2C1=O | 
17 | 0.47 | 1 | > 1000 | < 4 | 280 |  | CN[C@@H](C)C(=O)N[C@H]1CCC[C@H]2C[C@H]3CCN(CCc4ccc([N+](=O)[O-])cc4)C[C@H]3N2C1=O | 
18 |  | 0.9 | > 1000 | < 4 | 490 |  | CN[C@@H](C)C(=O)N[C@H]1CCC[C@H]2C[C@H]3CCN(CCc4c[nH]c5ccccc45)C[C@H]3N2C1=O | 

Row | fraction unbound ([1]; Fu) | logD ([2]; logD) | solubility [4] [µM] | microsomal CLint ([5]; liver microsomes, CLH) [µL/min/mg] | GI50 ([6]; Homo sapiens, MDA-MB-231) [nM] | pIC50 [7] | SMILES | further results
19 |  | 0.3 | > 1000 |  | 4500 |  | CN[C@@H](C)C(=O)N[C@H]1CCC[C@H]2C[C@H]3CCN(CCc4scnc4C)C[C@H]3N2C1=O | 
20 |  | -0.2 |  |  | 10000 | < 5.00 | CN[C@@H](C)C(=O)N[C@H]1CCC[C@H]2C[C@H]3CCN(CCc4ccccn4)C[C@H]3N2C1=O | 
21 |  | 0.1 | > 1000 |  |  | < 5.00 | CN[C@@H](C)C(=O)N[C@H]1CCC[C@H]2C[C@H]3CCN(CCC4=C(C)OCN4C)C[C@H]3N2C1=O | 
22 |  | 1.3 | > 1000 | 9.1 |  | < 5.00 | CN[C@@H](C)C(=O)N[C@H]1CCC[C@H]2C[C@H]3CCN(CCc4nc5cc(C)ccc5[nH]4)C[C@H]3N2C1=O | 
23 | 0.52 | 0.8 | > 1000 | 7.1 | > 11000 | < 5.00 | CN[C@@H](C)C(=O)N[C@H]1CCC[C@H]2C[C@H]3CCN(Cc4ccccc4)C[C@H]3N2C1=O | 
24 | 0.47 | 1.6 |  |  | > 11000 | < 5.00 | CN[C@@H](C)C(=O)N[C@H]1CCC[C@H]2C[C@H]3CCN(CCCc4ccccc4)C[C@H]3N2C1=O | 
25 | 0.49 | 1.5 | > 1000 | 5 | 1300 | < 5.00 | CN[C@@H](C)C(=O)N[C@H]1CCC[C@H]2C[C@H]3CCN(CCC4CCCCC4)C[C@H]3N2C1=O | 
26 |  | 0.1 |  |  |  | < 5.00 | CN[C@@H](C)C(=O)N[C@H]1CCC[C@H]2C[C@H]3CCN(CC(C)C)C[C@H]3N2C1=O | 
27 | 0.049 | 2.7 | > 1000 | 14 |  | < 5.00 | CN[C@@H](C)C(=O)N[C@H]1CCC[C@H]2C[C@H]3CCN(C(c4ccccc4)c4ccccc4)C[C@H]3N2C1=O | 
28 |  |  |  |  |  | < 5.00 | CCCCN1CC[C@@H]2C[C@@H]3CCC[C@H](NC(=O)[C@H](C)NC)C(=O)N3[C@@H]2C1 | pIC50 [3]: 5.92
29 | 0.66 | 0.4 | > 1000 | 6.5 | 320 |  | CN[C@@H](C)C(=O)N[C@H]1CCC[C@H]2C[C@H]3CCN(C(=O)Cc4ccccc4)C[C@H]3N2C1=O | 
30 | 0.039 | 1.4 | > 1000 | 27 | 3000 |  | CN[C@@H](C)C(=O)N[C@H]1CCC[C@H]2C[C@H]3CCN(C(=O)C(c4ccccc4)c4ccccc4)C[C@H]3N2C1=O | 
31 | > 0.7 | -0.4 | > 1000 | 7.05 |  | < 5.00 | CN[C@@H](C)C(=O)N[C@H]1CCC[C@H]2C[C@H]3CCN(C(=O)c4ccccc4)C[C@H]3N2C1=O | pIC50 [3]: < 5.00
32 | 0.62 | 0.6 | > 1000 | 6.7 | 3900 |  | CN[C@@H](C)C(=O)N[C@H]1CCC[C@H]2C[C@H]3CCN(C(=O)Nc4ccccc4)C[C@H]3N2C1=O | 
33 | 0.4 | 0.4 | > 1000 | 25 | > 11000 |  | CN[C@@H](C)C(=O)N[C@H]1CCC[C@H]2C[C@H]3CCN(S(=O)(=O)Cc4ccccc4)C[C@H]3N2C1=O | pIC50 [3]: 5.55
34 | 0.2 | 0.7 | > 1000 | 7.1 |  |  | CN[C@@H](C)C(=O)N[C@H]1CCC[C@H]2C[C@H]3CCN(S(=O)(=O)c4ccccc4)C[C@H]3N2C1=O | pIC50 [3]: 5.10
35 | 0.18 | 1.4 |  | < 4 | 2500 |  | CN[C@@H](C)C(=O)N[C@H]1CCC[C@H]2C[C@H]3CCN(CC(C)c4ccccc4)C[C@H]3N2C1=O (mixture of isomers) | pIC50 [3]: 6.74
36 |  |  |  |  |  |  | CN[C@@H](C)C(=O)N[C@H]1CCC[C@H]2C[C@H]3CCN(C(=O)C(OCC#CC#CCOC(C(=O)N4CC[C@@H]5C[C@@H]6CCC[C@H](NC(=O)[C@H](C)NC)C(=O)N6[C@@H]5C4)c4ccccc4)c4ccccc4)C[C@H]3N2C1=O (single isomer, unassigned; isomer 2) | Fu [8]: 10%; logD [2]: 1.9; GI50 [6]: 200 nM

Row | SMILES | fraction unbound ([1]; Fu) | logD ([2]; logD) | solubility [4] [µM] | microsomal CLint ([5]; liver microsomes, CLH) [µL/min/mg] | GI50 ([6]; Homo sapiens, MDA-MB-231) [nM] | pIC50 [7] | further results
37 | CN[C@@H](C)C(=O)N[C@H]1CCC[C@H]2C[C@H]3CCN(CC4CCCCC4)C[C@H]3N2C1=O |  | 0.9 |  | 8.9 | 2000 | < 5.00 | 
38 | CN[C@@H](C)C(=O)N[C@H]1CCC[C@H]2C[C@H]3CCN(C(=O)OCc4ccccc4)C[C@H]3N2C1=O | 0.42 |  |  |  | > 369 |  | microsomal CLint ([5]; microsomes, CLH): 20 µL/min/mg
39 | CN[C@@H](C)C(=O)N[C@H]1CCC[C@H]2C[C@H]3CCN(C(=O)Oc4ccccc4)C[C@H]3N2C1=O |  |  | 700 (≈ 300 µg/mL) |  | 910 |  | fraction unbound [1]: 0.51; logD [2]: 0.7; microsomal CLint ([5]; liver microsomes): 6.3 µL/min/mg
